Results taken from patent publication US8475786B2, “Long-lasting absorption of flavonoids” (Nestec S.A., priority 2006, dated 2013).

Experiment: Plasma hesperetin levels after ingestion (FIG. 2)
Assay type: in vivo
Source text: FIG. 2 is a graph comparing the plasma hesperetin levels depending on whether hesperetin-7-glucoside alone is ingested, whether hesperidin alone is ingested or whether a composition according to the present invention is consumed.
Without wishing to be bound by theory, it is thought that this is due to the presence of enzymes which are able to cleave the glucose moiety off, such that hesperetin is readily absorbable.
Without wishing to be bound by theory, it is thought that this is due to the presence of enzymes able to cleave the rutinose moiety of hesperidin only at a later stage of passage through the gastro-intestinal tract.
Thus, the compositions of the present invention advantageously provide a plasma level of hesperetin which is sustained over a longer period of time (cf. FIG. 2).
Indeed, after the ingestion of the compositions of the present invention, the hesperetin plasma levels are maintained for a sustained period of time (FIG. 2).

plasma level of hesperetin (in vivo) | SMILES | plasma level of hesperetin (after ingestion, FIG. 2)
sharp peak shortly after ingestion | COc1ccc(C2CC(=O)c3c(O)cc(OC4OC(CO)C(O)C(O)C4O)cc3O2)cc1O (centres unmarked) [hesperetin-7-glucose, hesperetin-7-glucoside] | 
 | COc1ccc([C@@H]2CC(=O)c3c(O)cc(O[C@@H]4O[C@H](CO[C@@H]5O[C@@H](C)[C@H](O)[C@@H](O)[C@H]5O)[C@@H](O)[C@H](O)[C@H]4O)cc3O2)cc1O [hesperidin] | appears only later and to a smaller extent
